The text below walks through data of ChEMBL document CHEMBL4118211, “Isoxazole-tethered diarylheptanoid analogs: Discovery of a new drug-like PAR2 antagonist” (Bioorg Med Chem Lett, 2018).

In brackets after ≈: the same amount, converted by molar mass.

Series [1] in a line: Kinetic solubility of the compound in phosphate buffer at pH 7.4 at 0.0098 to 10 mM by turbidometric method. In kind it is physicochemical. Conditions: read-out: Kinetic_solubility.
Series [2] in a line: Metabolic stability in human liver microsomes assessed as parent compound remaining at 1 uM preincubated for 5 mins followed by NADPH addition measured after 30 mins by LC-MS/MS analysis. In kind it is ADME, microsome. To be noted: read-out: Stability.
The next series concerns HepG2. As to the kind of experiment: Cytotoxicity against human HepG2 cells assessed as reduction in cell viability after 24 hrs by MTT assay. To be noted: HepG2, 24 h. In kind it is cell-based. In general terms: Formazan colour is commonly taken as a measure of viable cells.
Series [3] in a line: Permeability from apical to basolateral side in human Caco2 cells at 5 uM after 90 mins. To be noted: Caco-2, read-out: permeability. In kind it is ADME, cell-based.
Series [4] in a line: Permeability from basolateral to apical side in human Caco2 cells at 5 uM after 90 mins. Format: ADME, cell-based. To be noted: Caco-2, read-out: permeability. On the technique in general: Caco-2 monolayers are a common model of the intestinal barrier.
Series [5] addresses Proteinase-activated receptor 2 (Homo sapiens) (UniProt P55085). The experiment in a line: Antagonist activity at PAR2 in human HEK293 cells assessed as inhibition of trypsin-induced intracellular calcium flux at 30 uM pretreated for 15 mins followed by trypsin addition by Fluo-8 dye based fluorescence assay relative to control. In kind it is functional, cell-based. (Calcium flux is commonly read through the fluorescence of an indicator in the cells.)

The target is the same in series [6]. As to the kind of experiment: Antagonist activity at PAR2 in human HEK293 cells assessed as trypsin-induced intracellular calcium flux at 1 uM pretreated for 15 mins followed by trypsin addition by Fluo-8 dye based fluorescence assay relative to control. On the set-up: scale not given: the % may be the effect or the level left. In kind it is functional, cell-based.

Series [7] has the same target. As to the kind of experiment: Antagonist activity at PAR2 in human HEK293 cells assessed as trypsin-induced intracellular calcium flux at 3 uM pretreated for 15 mins followed by trypsin addition by Fluo-8 dye based fluorescence assay relative to control. Format: functional, cell-based. Details: scale not given: the % may be the effect or the level left.
For series [8] the target is unchanged. As to the kind of experiment: Antagonist activity at PAR2 in human HEK293 cells assessed as trypsin-induced intracellular calcium flux at 10 uM pretreated for 15 mins followed by trypsin addition by Fluo-8 dye based fluorescence assay relative to control. Details: scale not given: the % may be the effect or the level left. Format: functional, cell-based.
The target of series [9] is T1, Proteinase-activated receptor 2 (Homo sapiens, UniProt P55085).
T1 sequence (P55085 whole entry): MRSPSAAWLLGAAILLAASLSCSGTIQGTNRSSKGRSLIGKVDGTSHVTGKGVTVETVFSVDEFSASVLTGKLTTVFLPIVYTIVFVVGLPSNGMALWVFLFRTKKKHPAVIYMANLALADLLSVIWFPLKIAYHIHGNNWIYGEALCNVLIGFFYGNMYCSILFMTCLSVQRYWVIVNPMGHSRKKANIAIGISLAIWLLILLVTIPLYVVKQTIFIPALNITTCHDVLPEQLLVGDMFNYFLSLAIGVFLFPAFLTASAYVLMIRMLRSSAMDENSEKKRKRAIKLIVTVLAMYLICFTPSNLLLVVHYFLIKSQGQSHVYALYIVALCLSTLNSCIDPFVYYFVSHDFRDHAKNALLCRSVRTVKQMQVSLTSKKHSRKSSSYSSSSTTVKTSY
The experiment in a line: Antagonist activity at PAR2 in human 1321N1 cells assessed as inhibition of trypsin-induced intracellular calcium flux pretreated for 60 mins followed by trypsin addition by Fluo-8 NW dye based FLIPR assay. In kind it is functional, cell-based.

Series [10] deals with Proteinase-activated receptor 2 (Homo sapiens) (UniProt P55085). As to the kind of experiment: Antagonist activity at PAR2 in human HEK293 cells assessed as inhibition of trypsin-induced intracellular calcium flux at 10 uM pretreated for 15 mins followed by trypsin addition by Fluo-8 dye based fluorescence assay relative to control. In kind it is functional, cell-based.
The target of series [11] is Amyloid-beta precursor protein (Homo sapiens, UniProt P05067). The experiment in a line: Displacement of [125I]IMPY from fibrillar amyloid beta 42 (unknown origin) after 3 hrs.
Series [12] addresses T1, Proteinase-activated receptor 2. As to the kind of experiment: Antagonist activity at PAR2 in human HEK293 cells assessed as inhibition of trypsin-induced intracellular calcium flux pretreated for 15 mins followed by trypsin addition by Fluo-8 dye based fluorescence assay. Format: functional, cell-based.
The target in series [13] is Proteinase-activated receptor 2 (Homo sapiens) (UniProt P55085). The experiment in a line: Antagonist activity at PAR2 in human HEK293 cells assessed as trypsin-induced intracellular calcium flux at 0.01 uM pretreated for 15 mins followed by trypsin addition by Fluo-8 dye based fluorescence assay relative to control. Details: scale not given: the % may be the effect or the level left. In kind it is functional, cell-based.

Series [14] shares this target. The experiment in a line: Antagonist activity at PAR2 in human HEK293 cells assessed as trypsin-induced intracellular calcium flux at 0.1 uM pretreated for 15 mins followed by trypsin addition by Fluo-8 dye based fluorescence assay relative to control. In kind it is functional, cell-based. On the set-up: scale not given: the % may be the effect or the level left.

The target is the same in series [15]. As to the kind of experiment: Antagonist activity at PAR2 in human HEK293 cells assessed as trypsin-induced intracellular calcium flux at 0.3 uM pretreated for 15 mins followed by trypsin addition by Fluo-8 dye based fluorescence assay relative to control. On the set-up: scale not given: the % may be the effect or the level left. Format: functional, cell-based.

Series [16] shares this target. The experiment in a line: Antagonist activity at PAR2 in human HEK293 cells assessed as trypsin-induced intracellular calcium flux at 100 uM pretreated for 15 mins followed by trypsin addition by Fluo-8 dye based fluorescence assay relative to control. In kind it is functional, cell-based. Details: scale not given: the % may be the effect or the level left.

Amyloid-beta precursor protein, sequence (P05067 whole entry): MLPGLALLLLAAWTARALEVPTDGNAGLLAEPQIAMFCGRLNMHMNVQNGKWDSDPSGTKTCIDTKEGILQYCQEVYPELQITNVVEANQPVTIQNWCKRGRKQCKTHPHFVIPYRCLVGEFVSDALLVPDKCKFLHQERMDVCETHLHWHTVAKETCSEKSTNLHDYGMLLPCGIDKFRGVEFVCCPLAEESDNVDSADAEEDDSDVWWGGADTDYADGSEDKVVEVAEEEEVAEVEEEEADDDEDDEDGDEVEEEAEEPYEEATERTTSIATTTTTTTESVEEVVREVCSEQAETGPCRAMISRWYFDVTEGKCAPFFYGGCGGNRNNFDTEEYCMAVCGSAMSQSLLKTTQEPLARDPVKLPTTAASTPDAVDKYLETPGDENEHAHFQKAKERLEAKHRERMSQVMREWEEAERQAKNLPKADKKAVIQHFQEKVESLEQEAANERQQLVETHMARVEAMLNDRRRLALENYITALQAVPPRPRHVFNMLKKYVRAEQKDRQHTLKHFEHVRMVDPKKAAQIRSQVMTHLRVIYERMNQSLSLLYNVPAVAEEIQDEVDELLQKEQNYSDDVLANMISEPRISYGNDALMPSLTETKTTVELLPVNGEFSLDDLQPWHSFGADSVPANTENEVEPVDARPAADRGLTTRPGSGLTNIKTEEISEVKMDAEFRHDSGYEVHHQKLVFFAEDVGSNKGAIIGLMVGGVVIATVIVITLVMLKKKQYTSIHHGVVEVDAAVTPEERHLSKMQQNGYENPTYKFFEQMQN

In general, IC50 refers to the concentration needed to halve the response being measured. One may read the inhibition as the drop in the measured response relative to a control, in per cent. Turning to `O[C@@H](CCc1ccc(F)cc1)C[C@@H](O)c1cc(-c2ccccc2)on1`, in series [1], the solubility kinetic worked out at 25 µM (≈ 8.53 µg/mL). Also, in series [2], the remaining at 0.5 h, 1 µM turned out to be 73%. Further, in the series with HepG2, the IC50 is above 100 µM. Also, the Papp A→B at 1.5 h, 5 µM in [3] was determined as 6.3 ×10⁻⁶ cm/s. Further, the Papp B→A at 1.5 h, 5 µM in series [4] was 5 ×10⁻⁶ cm/s. For the same compound, in series [5], the inhibition was determined as 70%. Besides, the Activity in series [6] is 100%; in series [7], 100%; in [8], 65 to 70%.
On to `COc1ccc(CC[C@H](O)C[C@H](O)c2cc(-c3ccc(OC)cc3)on2)cc1`, for which the solubility kinetic in series [1] was found to be 12 µM (≈ 4.6 µg/mL). For the same compound, in [2], the remaining at 0.5 h, 1 µM is below 20%. Also, the IC50 with HepG2 is above 100 µM.
With `COc1cc(/C=C/C(=O)CC(=O)/C=C/c2ccc(O)c(OC)c2)ccc1O` [CURCUMIN], in [1], the solubility kinetic worked out at 3 µM (≈ 1.11 µg/mL). For the same compound, the remaining at 0.5 h, 1 µM in [2] was 21%. Moreover, the half-maximal inhibitory concentration (IC50) in the series with HepG2 was determined as 10 µM. Further, in series [3], the Papp A→B at 1.5 h, 5 µM was below 0.5 ×10⁻⁶ cm/s. For the same compound, the Papp B→A at 1.5 h, 5 µM in series [4] was below 0.5 ×10⁻⁶ cm/s.
On to `COc1ccc(CC[C@H](O)C[C@H](O)c2cc(-c3ccccc3)on2)cc1`, for which the solubility kinetic in series [1] amounted to 25 µM (≈ 8.84 µg/mL). Also, the remaining at 0.5 h, 1 µM in series [2] was 33%. For the same compound, the IC50 in the series with HepG2 is above 100 µM.
Take `CCCc1cc(F)ccc1[C@H](O)c1ncc[nH]1`: the IC50 in series [9] was found to be 4.2 µM.
As to `COc1ccc(-c2cc([C@@H](O)C[C@@H](O)CCc3ccc(Cl)cc3)no2)cc1`, the solubility kinetic in [1] is 12 µM (≈ 4.65 µg/mL). Moreover, in [2], the remaining at 0.5 h, 1 µM was below 20%. Besides, in the series on HepG2, the IC50 was above 100 µM.
For `COc1ccc(CC[C@H](O)C[C@@H](O)c2cc(-c3ccccc3)on2)cc1`, the solubility kinetic in [1] was 25 µM (≈ 8.84 µg/mL). In series [2], the remaining at 0.5 h, 1 µM was 32%. Besides, the IC50 in the series with HepG2 was above 100 µM.
As to `CC[C@H](C)[C@H](NC(=O)[C@H](CC1CCCCC1)NC(=O)c1ccno1)C(=O)N1CCC2(CCc3ccccc32)CC1`, the inhibition in [10] came out at 42%.
As to `COc1cccc(CC[C@H](O)C[C@@H](O)c2cc(-c3ccccc3)on2)c1`, the solubility kinetic in series [1] was 25 µM (≈ 8.84 µg/mL). For the same compound, the remaining at 0.5 h, 1 µM in [2] is below 20%. In addition, the IC50 with HepG2 is above 100 µM.
Turning to `COc1cc(/C=C/c2cc(/C=C/c3ccc(O)c(OC)c3)on2)ccc1O`, the half-inhibitory concentration (IC50) in series [11] was 0.138 µM.
On to `O[C@@H](CCc1ccc(F)cc1)C[C@H](O)c1cc(-c2ccccc2)on1`, for which the solubility kinetic in series [1] came out at 25 µM (≈ 8.53 µg/mL). The remaining at 0.5 h, 1 µM in [2] was determined as 84%. Besides, the half-maximal inhibitory concentration (IC50) is above 100 µM in the series with HepG2 and 6 µM in [12]. The Papp A→B at 1.5 h, 5 µM in [3] came to 7.4 ×10⁻⁶ cm/s. The Papp B→A at 1.5 h, 5 µM in series [4] is 5.8 ×10⁻⁶ cm/s. Also, the inhibition in [5] is 80%. Further, the Activity was in the range of 95 to 100% in series [13]; 90 to 95% in [14]; 80 to 85% in [15]; 74 to 78% in series [6]; 60 to 65% in [7]; 43 to 48% in series [8]. The Activity in series [16] lay in the range of 15 to 20%.
Take `C[C@@H](C1CCCCC1)n1c(-c2cc3c(cc2Br)OCO3)nc2cc(C(=O)Nc3ccc(C#N)cc3)ccc21`: the IC50 in series [9] was 6.6 µM.
